Tested on: patients with RET fusion-positive NSCLC
Assay: Phase 2 trial: adverse events (CTCAE)
Format: in vivo, human
Text: The phase 2 trial was still ongoing. It was a single-arm, multicenter, open-label, nonrandomized study to assess the efficacy and safety of HA121-28 in RET-fusion-positive NSCLC.
Patients aged 18–75 years (inclusive) who had unresectable locally advanced or metastatic NSCLC through histologically or cytologically examination were enrolled. Patients were also required to have documented RET fusions centrally examined by next-generation sequencing in certified laboratories but without other oncogenic alterations. Had progression on at least one previous line of standard treatment but have no previous use of other anti-RET inhibitors. The complete lists of inclusion and exclusion criteria of phase 1 and phase 2 are provided in both protocols (in Supplement).
In phase 1 trial, during the dose-escalation part, patients first administered HA121-28 in a single ascending dose under the fasted state, then followed up for seven days. Then, patients received ascending doses of HA121-28 (q.d.) on a 21-day on and 7-day off treatment scheme for a 28-day cycle. For patients deemed beneficial from the treatment by investigators, treatment could remain until disease progression, or they discontinued from the study. In the dose-expansion part of phase 1, as well as phase 2, patients received HA121-28 (q.d.) at the selected doses on a 21-day on and 7-day off treatment scheme until disease progression, or they discontinued from the study.
Treatment-emergent adverse events (TEAEs) were documented during the entire study period. The predefined adverse event of special interest (AESI) was ≥ grade 3 prolonged QT interval. Tumor imaging was performed using contrast-enhanced computed tomography or magnetic resonance imaging at screening, Day 28 of the first cycle, then approximately every eight weeks till the end of the study for phase 1; in phase 2, imaging was scheduled at screening, and every eight weeks during the first 40 weeks, followed by every 12 weeks for the rest of the study period. RECIST 1.1 was used by the independent review committee or investigators for assessment of tumor response. After the original assessment, a repeated assessment was required around four weeks later to confirm a complete or partial response.
The primary endpoint of phase 2 was the independent review committee evaluated ORR using RECIST 1.1. The secondary endpoints included investigators assessed ORR; DCR, PFS, and DOR by the independent review committee and investigators; overall survival and TEAEs. Each TEAE was graded according to CTCAE version 5.0 and coded by MedDRA (version 24.0). The phase 2 trial is ongoing; not all endpoints are reported in this paper.

[1] = Phase 2 study, patient 3 with Grade 3 QTc prolongation
[2] = Phase 2 study, patient 4 with Grade 3 QTc prolongation
[3] = Phase 2 study, patient 5 with Grade 3 QTc prolongation
[4] = Phase 2 study, patient 7 with Grade 3 QTc prolongation
[5] = Phase 2 study, patient 8 with Grade 3 QTc prolongation

For `COc1cc2c(Nc3ccc(Br)cc3F)ncnc2cc1OCCCCN(C)C.Cl.Cl` [HA121-28, N-(4-bromo-2-fluorophenyl)-7-(4-(dimethylamino)butoxy)-6-methoxy quinazolin-4-amine dihydrochloride], the “Serious TEAE: Pneumonia” value (Phase 2, 450 mg (N=48)) was 1 (2.1) No. (%), the “Serious TEAE: Pneumonitis” value (Phase 2, 450 mg (N=48)) was 1 (2.1) No. (%) and the “Serious TEAE: Prolonged QT interval” value (Phase 2, 450 mg (N=48)) was 0 No. (%). For the same compound, the “Serious TEAE: Pulmonary embolism” value (Phase 2, 450 mg (N=48)) was 1 (2.1) No. (%), the “Serious TEAE: Pyrexia” value (Phase 2, 450 mg (N=48)) was 1 (2.1) No. (%) and the “Serious TEAE: Rash” value (Phase 2, 450 mg (N=48)) was 2 (4.2) No. (%). The “Serious TEAE: Rectal hemorrhage” value (Phase 2, 450 mg (N=48)) was 0 No. (%), the “Serious TEAE: Respiratory failure” value (Phase 2, 450 mg (N=48)) was 1 (2.1) No. (%) and the “Serious TEAE: Seizure” value (Phase 2, 450 mg (N=48)) was 0 No. (%). For the same compound, the “Serious TEAE: Septic shock” value (Phase 2, 450 mg (N=48)) was 1 (2.1) No. (%), the “Serious TEAE: Sudden cardiac arrest” value (Phase 2, 450 mg (N=48)) was 0 No. (%) and the “Serious TEAE: Sudden death” value (Phase 2, 450 mg (N=48)) was 0 No. (%). The “Serious TEAE: Upper respiratory tract infection” value (Phase 2, 450 mg (N=48)) was 0 No. (%), the “Serious TEAE: Ventricular tachycardia” value (Phase 2, 450 mg (N=48)) was 0 No. (%) and the “Serious TEAE: Vomiting” value (Phase 2, 450 mg (N=48)) was 0 No. (%). For the same compound, the “Serious TEAE: Weight loss” value (Phase 2, 450 mg (N=48)) was 0 No. (%), the “Serious TRAE: ALT increased” value (Phase 2, 450 mg (N=48)) was 1 (2.1) No. (%) and the “Serious TRAE: AST increased” value (Phase 2, 450 mg (N=48)) was 1 (2.1) No. (%). For the same compound, the “Serious TRAE: Abdominal Pain” value (Phase 2, 450 mg (N=48)) was 1 (2.1) No. (%), the “Serious TRAE: Abdominal distension” value (Phase 2, 450 mg (N=48)) was 0 No. (%) and the “Serious TRAE: Acute cholecystitis” value (Phase 2, 450 mg (N=48)) was 0 No. (%). For the same compound, the “Serious TRAE: Acute pancreatitis” value (Phase 2, 450 mg (N=48)) was 0 No. (%), the “Serious TRAE: Anal abscess” value (Phase 2, 450 mg (N=48)) was 0 No. (%) and the “Serious TRAE: Any” value (Phase 2, 450 mg (N=48)) was 9 (18.8) No. (%). For the same compound, the “Serious TRAE: Aortic intramural hematoma” value (Phase 2, 450 mg (N=48)) was 0 No. (%), the “Serious TRAE: Arrhythmia” value (Phase 2, 450 mg (N=48)) was 0 No. (%) and the “Serious TRAE: Blood bilirubin increased” value (Phase 2, 450 mg (N=48)) was 0 No. (%). For the same compound, the “Serious TRAE: Blood creatinine increased” value (Phase 2, 450 mg (N=48)) was 0 No. (%), the “Serious TRAE: COVID-19” value (Phase 2, 450 mg (N=48)) was 0 No. (%) and the “Serious TRAE: Cardiac tamponade” value (Phase 2, 450 mg (N=48)) was 0 No. (%). The “Serious TRAE: Coronary artery atherosclerosis” value (Phase 2, 450 mg (N=48)) was 0 No. (%), the “Serious TRAE: Death” value (Phase 2, 450 mg (N=48)) was 0 No. (%) and the “Serious TRAE: Dermatitis allergic” value (Phase 2, 450 mg (N=48)) was 1 (2.1) No. (%). For the same compound, the “Serious TRAE: Diarrhea” value (Phase 2, 450 mg (N=48)) was 1 (2.1) No. (%), the “Serious TRAE: Drug eruption” value (Phase 2, 450 mg (N=48)) was 0 No. (%) and the “Serious TRAE: Dyspnea” value (Phase 2, 450 mg (N=48)) was 0 No. (%). For the same compound, the “Serious TRAE: Embolism” value (Phase 2, 450 mg (N=48)) was 0 No. (%), the “Serious TRAE: Erythema multiforme” value (Phase 2, 450 mg (N=48)) was 1 (2.1) No. (%) and the “Serious TRAE: Headache” value (Phase 2, 450 mg (N=48)) was 0 No. (%). The “Serious TRAE: Hemoptysis” value (Phase 2, 450 mg (N=48)) was 0 No. (%), the “Serious TRAE: Hydronephrosis” value (Phase 2, 450 mg (N=48)) was 0 No. (%) and the “Serious TRAE: Hypertension” value (Phase 2, 450 mg (N=48)) was 2 (4.2) No. (%). The “Serious TRAE: Hypoalbuminemia” value (Phase 2, 450 mg (N=48)) was 0 No. (%), the “Serious TRAE: Intestinal obstruction” value (Phase 2, 450 mg (N=48)) was 0 No. (%) and the “Serious TRAE: Intra-abdominal fluid collection” value (Phase 2, 450 mg (N=48)) was 0 No. (%). For the same compound, the “Serious TRAE: Intracranial tumor hemorrhage” value (Phase 2, 450 mg (N=48)) was 0 No. (%), the “Serious TRAE: Liver injury” value (Phase 2, 450 mg (N=48)) was 0 No. (%) and the “Serious TRAE: Lung adenocarcinoma” value (Phase 2, 450 mg (N=48)) was 0 No. (%). The “Serious TRAE: Malignant neoplasm progression” value (Phase 2, 450 mg (N=48)) was 0 No. (%), the “Serious TRAE: Multiple organ dysfunction syndrome” value (Phase 2, 450 mg (N=48)) was 0 No. (%) and the “Serious TRAE: Nausea” value (Phase 2, 450 mg (N=48)) was 0 No. (%). For the same compound, the “Serious TRAE: Nephrolithiasis” value (Phase 2, 450 mg (N=48)) was 0 No. (%), the “Serious TRAE: Platelet counts decreased” value (Phase 2, 450 mg (N=48)) was 0 No. (%) and the “Serious TRAE: Pleural effusion” value (Phase 2, 450 mg (N=48)) was 0 No. (%). For the same compound, the “Serious TRAE: Pneumonia” value (Phase 2, 450 mg (N=48)) was 0 No. (%), the “Serious TRAE: Pneumonitis” value (Phase 2, 450 mg (N=48)) was 0 No. (%) and the “Serious TRAE: Prolonged QT interval” value (Phase 2, 450 mg (N=48)) was 0 No. (%). For the same compound, the “Serious TRAE: Pulmonary embolism” value (Phase 2, 450 mg (N=48)) was 1 (2.1) No. (%), the “Serious TRAE: Pyrexia” value (Phase 2, 450 mg (N=48)) was 0 No. (%) and the “Serious TRAE: Rash” value (Phase 2, 450 mg (N=48)) was 2 (4.2) No. (%). For the same compound, the “Serious TRAE: Rectal hemorrhage” value (Phase 2, 450 mg (N=48)) was 0 No. (%), the “Serious TRAE: Respiratory failure” value (Phase 2, 450 mg (N=48)) was 0 No. (%) and the “Serious TRAE: Seizure” value (Phase 2, 450 mg (N=48)) was 0 No. (%). The “Serious TRAE: Septic shock” value (Phase 2, 450 mg (N=48)) was 0 No. (%), the “Serious TRAE: Sudden cardiac arrest” value (Phase 2, 450 mg (N=48)) was 0 No. (%) and the “Serious TRAE: Sudden death” value (Phase 2, 450 mg (N=48)) was 0 No. (%). The “Serious TRAE: Upper respiratory tract infection” value (Phase 2, 450 mg (N=48)) was 0 No. (%), the “Serious TRAE: Ventricular tachycardia” value (Phase 2, 450 mg (N=48)) was 0 No. (%) and the “Serious TRAE: Vomiting” value (Phase 2, 450 mg (N=48)) was 0 No. (%). For the same compound, the “Serious TRAE: Weight loss” value (Phase 2, 450 mg (N=48)) was 0 No. (%), the “Grade of cardiac TEAE: sinus bradycardia” value (Phase 2 study, patient 1 with Grade 3 QTc prolongation) was 1 and the “Grade of cardiac TEAE: cronary arteriosclerosis” value (Phase 2 study, patient 2 with Grade 3 QTc prolongation) was 2. For the same compound, the “Grade of cardiac TEAE: Supraventricular extrasystoles” value [1] was 1, the “Grade of cardiac TEAE: arhythmia” value [1] was 1 and the “Grade of cardiac TEAE: sinus bradycardia” value [1] was 1. For the same compound, the “Grade of cardiac TEAE: ventricular extrasystole” value [1] was 2, the “Grade of cardiac TEAE: Ejection fraction reduced” value [2] was 2 and the “Grade of cardiac TEAE: Left ventricular dysfunction” value [2] was 2. The “Grade of cardiac TEAE: Supraventricular extrasystoles” value [2] was 1, the “Grade of cardiac TEAE: Ventricular wall movement diffusky diminshed” value [2] was 2 and the “Grade of cardiac TEAE: nodal tachycardia” value [2] was 1. The “Grade of cardiac TEAE: T wave abnormal” value [3] was 1, the “Grade of cardiac TEAE: nodal tachycardia” value [3] was 1 and the “Grade of cardiac TEAE: myocardial damage” value (Phase 2 study, patient 6 with Grade 3 QTc prolongation) was 2. For the same compound, the “Grade of cardiac TEAE: Supraventricular extrasystoles” value [4] was 2, the “Grade of cardiac TEAE: T wave abnormal” value [4] was 2 and the “Grade of cardiac TEAE: U wave abnormal” value [4] was 2. The “Grade of cardiac TEAE: T wave abnormal” value [5] was 1, the “Grade of cardiac TEAE: nodal tachycardia” value [5] was 1 and the “Grade of cardiac TEAE: nodal tachycardia” value (Phase 2 study, patient 9 with Grade 3 QTc prolongation) was 1. The “grade ≥ 3 TEAE diarrhea” value (phase 2) was 12.5%, the “grade ≥ 3 TEAE hypertension” value (phase 2) was 18.8% and the “grade ≥ 3 TEAE prolonged QT interval” value (phase 2) was 31.3%. The “patients with at least one SAE” value (phase 2) was 39.6%, the “patients with at least one TRAE” value (phase 2) was 95.8% and the “patients with grade ≥3 TRAEs” value (phase 2) was 62.5%. For the same compound, the “patients with treatment-related SAE” value (phase 2) was 18.8%, the “≥ grade-3 prolonged QT interval with dose interruption” value (phase 2) was 14.6% and the “≥ grade-3 prolonged QT interval with dose reduction” value (phase 2) was 6.3%.

From PMC11868595, “Safety, pharmacokinetics and efficacy of HA121-28 in patients with advanced solid tumors and RET fusion-positive non-small-cell lung cancer: a multicenter, open-label, single-arm phase 1/2 trial” (Signal Transduction and Targeted Therapy, 2025)
